Data taken from US20230416329A1, “A PEPTIDE WITH DISULFIDE BONDS AND INHIBITORY ACTIVITY AGAINST SERINE PROTEASES, DERIVED HYBRID PEPTIDES THEREOF, AND USES THEREOF” (INSTITUTE OF MATERIA MEDICA , CHINESE ACADEMY OF MEDICAL …, priority 2020, published 2023).
Like-named read-outs stand apart in the source and are kept apart here.

Key:
chymotrypsin = chymotrypsin (Bos taurus, UniProt P00766); test: in vitro; conditions: isolated enzyme chymotrypsin, pH 7.8, Remaining peak area (%)/chymotrypsin
Method in brief: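 Peptide and 0.05 μg/μL chymotrypsin were preincubated at 37 °C for 5 min, then mixed. Aliquots taken from 1.5 up to 60.0 min were quenched with 10% TFA, and remaining peptide was measured as RP-HPLC peak area.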

NEP24.11 = NEP24.11 (Homo sapiens, UniProt P08473); test: Tolerance of GLP-1 and its analogues to NEP24.11 (RP-HPLC remaining peak area); assay type: in vitro ADME; conditions: peptide 30 μM, NEP24.11 1.0 ng/μL; for Remaining peak area (%)/NEP24.11: 0.0 h; for remaining at 0.5 h, 30 μM / remaining at 2 h, 30 μM / remaining at 4 h, 30 μM / remaining at 8 h, 30 μM: isolated NEP24.11 enzyme in buffer; for remaining at 0.5 h, 30 μM: pH 7.4, 0.5 h; for remaining at 2 h, 30 μM: pH 7.4, 2.0 h; for remaining at 4 h, 30 μM: pH 7.4, 4.0 h
Sequence of NEP24.11 (P08473 whole entry): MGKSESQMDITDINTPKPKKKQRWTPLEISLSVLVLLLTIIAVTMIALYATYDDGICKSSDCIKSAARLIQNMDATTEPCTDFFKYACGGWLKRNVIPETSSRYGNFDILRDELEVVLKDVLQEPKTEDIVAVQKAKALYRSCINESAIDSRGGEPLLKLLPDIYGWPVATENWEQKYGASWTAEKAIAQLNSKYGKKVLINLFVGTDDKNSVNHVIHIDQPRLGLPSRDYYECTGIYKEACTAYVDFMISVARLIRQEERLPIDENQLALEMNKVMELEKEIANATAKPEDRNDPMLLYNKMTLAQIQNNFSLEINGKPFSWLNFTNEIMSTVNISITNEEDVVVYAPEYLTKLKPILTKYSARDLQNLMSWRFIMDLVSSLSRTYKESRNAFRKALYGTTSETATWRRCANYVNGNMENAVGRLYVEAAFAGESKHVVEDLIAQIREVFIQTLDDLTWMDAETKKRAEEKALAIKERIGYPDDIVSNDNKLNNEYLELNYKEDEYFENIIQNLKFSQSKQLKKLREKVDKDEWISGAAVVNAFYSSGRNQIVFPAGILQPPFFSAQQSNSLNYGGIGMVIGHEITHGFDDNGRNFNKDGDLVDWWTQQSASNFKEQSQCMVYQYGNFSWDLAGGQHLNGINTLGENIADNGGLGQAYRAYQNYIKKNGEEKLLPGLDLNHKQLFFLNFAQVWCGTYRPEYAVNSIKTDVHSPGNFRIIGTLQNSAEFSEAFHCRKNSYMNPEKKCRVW
Description: (§1) Mix by centrifugation at 8000 rpm for 30 seconds.
Arrange a certain volume of 0.04 μg/μL NEP24.11 enzyme solution in another sterile EP.

trypsin = molecular target: T1, trypsin (Bos taurus, UniProt P00760); test: in vitro; conditions: isolated enzyme trypsin, pH 7.8
T1 sequence (P00760 24-246): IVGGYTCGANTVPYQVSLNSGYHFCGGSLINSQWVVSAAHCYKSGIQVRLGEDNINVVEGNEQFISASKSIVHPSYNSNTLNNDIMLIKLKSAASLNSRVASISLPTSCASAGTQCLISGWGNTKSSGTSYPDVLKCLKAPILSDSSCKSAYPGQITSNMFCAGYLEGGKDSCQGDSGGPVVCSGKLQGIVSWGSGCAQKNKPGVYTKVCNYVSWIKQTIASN
Method in brief: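 Peptides were preincubated for 5 min at 37 °C and then digested with 0.05 μg/μL trypsin solution (stock). Remaining intact peptide was quantified as RP-HPLC peak area.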

DPP-IV = DPP-IV (Homo sapiens, UniProt P27487); test: Tolerance of GLP-1 and its analogues to DPP-IV (RP-HPLC remaining peak area); assay type: in vitro ADME; conditions: peptide 25 μM, DPP-IV 0.5 ng/μL, 37° C.; for Remaining peak area (%)/DPP-IV: 0.0 h; for remaining at 0.5 h, 25 μM / remaining at 2 h, 25 μM / remaining at 4 h, 25 μM / remaining at 8 h, 25 μM / remaining at 12 h, 25 μM: isolated DPP-IV enzyme in buffer, pH 8
Sequence of DPP-IV (P27487 whole entry, species assumed): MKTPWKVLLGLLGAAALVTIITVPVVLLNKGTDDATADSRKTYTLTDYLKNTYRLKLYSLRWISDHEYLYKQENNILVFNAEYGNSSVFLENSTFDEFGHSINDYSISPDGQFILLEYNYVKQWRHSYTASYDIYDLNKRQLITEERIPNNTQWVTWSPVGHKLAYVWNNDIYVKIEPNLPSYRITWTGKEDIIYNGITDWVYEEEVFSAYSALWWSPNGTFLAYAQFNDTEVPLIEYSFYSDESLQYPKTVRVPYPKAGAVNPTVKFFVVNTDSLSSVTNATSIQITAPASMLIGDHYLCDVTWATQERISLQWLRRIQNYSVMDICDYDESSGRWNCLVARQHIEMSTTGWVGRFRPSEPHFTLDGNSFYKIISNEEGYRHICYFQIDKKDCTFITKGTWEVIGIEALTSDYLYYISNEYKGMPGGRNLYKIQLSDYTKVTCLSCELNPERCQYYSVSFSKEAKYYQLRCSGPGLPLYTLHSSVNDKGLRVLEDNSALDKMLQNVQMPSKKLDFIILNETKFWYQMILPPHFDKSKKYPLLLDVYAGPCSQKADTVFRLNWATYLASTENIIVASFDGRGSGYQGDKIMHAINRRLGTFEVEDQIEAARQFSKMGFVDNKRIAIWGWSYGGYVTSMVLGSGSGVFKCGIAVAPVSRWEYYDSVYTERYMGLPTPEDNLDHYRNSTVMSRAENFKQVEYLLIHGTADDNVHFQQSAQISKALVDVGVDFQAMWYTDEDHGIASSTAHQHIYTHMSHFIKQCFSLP
Description: as §1
(2) Arrange a certain volume of 0.005 μg/μL DPP-IV solution in another sterile EP.

[1] = Stability of GLP-1 and its analogues in human serum; conditions: 25% (v/v) human serum
[2] = pH 7.4, 8.0 h, 37° C., read-out: Remaining peak area (%)/NEP24.11

Row | SMILES | remaining at 0.025 h, 60 μM (chymotrypsin) [%] | remaining at 0.05 h, 60 μM (chymotrypsin) [%] | remaining at 0.075 h, 60 μM (chymotrypsin) [%] | remaining at 0.1 h, 60 μM (chymotrypsin) [%] | remaining at 0.15 h, 60 μM (chymotrypsin) [%] | Remaining peak area (%)/NEP24.11 (NEP24.11; 37° C.) [%] | remaining at 0.5 h, 30 μM (NEP24.11; 37° C.) [%] | remaining at 2 h, 30 μM (NEP24.11; 37° C.) [%] | remaining at 4 h, 30 μM (NEP24.11; 37° C.) [%] | remaining at 8 h, 30 μM (NEP24.11; [2]) [%] | remaining at 0.025 h, 60 μM (trypsin) [%] | remaining at 0.05 h, 60 μM (trypsin) [%] | remaining at 0.075 h, 60 μM (trypsin) [%] | remaining at 0.1 h, 60 μM (trypsin) [%] | remaining at 0.15 h, 60 μM (trypsin) [%] | remaining at 0.25 h, 60 μM (trypsin) [%] | remaining at 0.5 h, 60 μM (trypsin) [%] | remaining at 1 h, 60 μM (trypsin) [%] | Remaining peak area (%)/DPP-IV (DPP-IV) [%] | remaining at 0.5 h, 25 μM (DPP-IV) [%] | further results
1 | CC[C@H](C)[C@H](NC(=O)[C@H](Cc1ccccc1)NC(=O)[C@H](CCC(=O)O)NC(=O)[C@H](CCCCN)NC(=O)[C@H](C)NC(=O)[C@H](C)NC(=O)[C@H](CCC(N)=O)NC(=O)CNC(=O)[C@H](CCC(=O)O)NC(=O)[C@H](CC(C)C)NC(=O)[C@H](Cc1ccc(O)cc1)NC(=O)[C@H](CO)NC(=O)[C@H](CO)NC(=O)[C@@H](NC(=O)[C@H](CC(=O)O)NC(=O)[C@H](CO)NC(=O)[C@@H](NC(=O)[C@H](Cc1ccccc1)NC(=O)[C@@H](NC(=O)CNC(=O)[C@H](CCC(=O)O)NC(=O)[C@H](C)NC(=O)[C@H](Cc1c[nH]cn1)NC(=O)CNC(=O)CNC(=O)[C@@H](NC(=O)[C@@H]1CCCN1C(=O)[C@@H](NC(=O)CN)[C@@H](C)CC)[C@@H](C)CC)[C@@H](C)O)[C@@H](C)O)C(C)C)C(=O)N[C@@H](C)C(=O)N[C@@H](Cc1c[nH]c2ccccc12)C(=O)N[C@@H](CC(C)C)C(=O)N[C@H](C(=O)N[C@@H](CCCCN)C(=O)NCC(=O)N[C@@H](CCCNC(=N)N)C(=O)NCC(=O)NCC(=O)N[C@@H](CCCCN)C(=O)NCC(=O)N[C@@H](CCCNC(=N)N)C(=O)N[C@H]1CSSC[C@@H](C(=O)N[C@@H](Cc2ccccc2)C(=O)N2CCC[C@H]2C(=O)O)NC(=O)[C@H]([C@@H](C)CC)NC(=O)[C@@H]2CCCN2C(=O)[C@@H]2CCCN2C(=O)[C@H]([C@@H](C)CC)NC(=O)[C@H](CO)NC(=O)[C@H](CCCCN)NC(=O)[C@H]([C@@H](C)O)NC1=O)C(C)C [D-GLP-1-BT1] | 67.1 ± 4.9 | 55.2 ± 0.6 | 47.1 ± 1.4 | 40.4 ± 1 | 31.3 ± 0.7 | 100.0 ± 0.0 | 80.3 ± 3.6 | 85.8 ± 2.7 | 80.1 ± 2.1 | 78.2 ± 3.9 | 96.9 ± 3.1 | 100 ± 2.5 | 96.5 ± 2.1 | 97.3 ± 3.6 | 98 ± 3.1 | 95.9 ± 3.2 | 98.1 ± 4.4 | 91 ± 7.6 | 100.0 ± 0.0 | 88 ± 6.2 | remaining at 8 h, 30 μM (NEP24.11; pH 7.4, 8 hours, read-out: remaining amount after NEP24.11 hydrolysis): ~80%; remaining at 2 h, 25 μM (DPP-IV): 95.9 ± 2.3%; remaining at 4 h, 25 μM (DPP-IV): 96.9 ± 2%; remaining at 8 h, 25 μM (DPP-IV): 92 ± 3.9%; remaining at 12 h, 25 μM (DPP-IV): 79 ± 4.6%; Remaining peak area (%)/human serum ([1]; 0.0 h, peptide 0.03 mM, 37° C.): 100.0 ± 0.0%; serum stability (in words) [1]: good serum stability; remaining at 0.5 h, 0.03 mM ([1]; human, pH 7): 88.2%; remaining at 2 h, 0.03 mM ([1]; human, pH 7): 92 ± 5.9%; remaining at 4 h, 0.03 mM ([1]; human, pH 7): 78.7 ± 5.7%; remaining at 8 h, 0.03 mM ([1]; human, pH 7): 58.2%; remaining at 12 h, 0.03 mM ([1]; human, pH 7): 43.6 ± 0.3%
2 | CC[C@H](C)[C@H](NC(=O)[C@H](Cc1ccccc1)NC(=O)[C@H](CCC(=O)O)NC(=O)[C@H](CCCCN)NC(=O)[C@H](C)NC(=O)[C@H](C)NC(=O)[C@H](CCC(N)=O)NC(=O)CNC(=O)[C@H](CCC(=O)O)NC(=O)[C@H](CC(C)C)NC(=O)[C@H](Cc1ccc(O)cc1)NC(=O)[C@H](CO)NC(=O)[C@H](CO)NC(=O)[C@@H](NC(=O)[C@H](CC(=O)O)NC(=O)[C@H](CO)NC(=O)[C@@H](NC(=O)[C@H](Cc1ccccc1)NC(=O)[C@@H](NC(=O)CNC(=O)[C@H](CCC(=O)O)NC(=O)[C@H](C)NC(=O)[C@H](Cc1c[nH]cn1)NC(=O)CNC(=O)CNC(=O)[C@H](CCCNC(=N)N)NC(=O)[C@H](CO)NC(=O)[C@H](Cc1ccccc1)NC(=O)[C@H](CCCNC(=N)N)NC(=O)[C@H](CCC(N)=O)NC(=O)CNC(=O)CNC(=O)[C@@H]1CCCN1C(=O)[C@H](Cc1ccccc1)NC(=O)[C@@H]1CSSC[C@H](NC(=O)[C@H](CCCNC(=N)N)NC(=O)CN)C(=O)N[C@@H]([C@@H](C)O)C(=O)N[C@@H](CCCCN)C(=O)N[C@@H](CO)C(=O)N[C@@H]([C@@H](C)CC)C(=O)N2CCC[C@H]2C(=O)N2CCC[C@H]2C(=O)N[C@@H]([C@@H](C)CC)C(=O)N1)[C@@H](C)O)[C@@H](C)O)C(C)C)C(=O)N[C@@H](C)C(=O)N[C@@H](Cc1c[nH]c2ccccc12)C(=O)N[C@@H](CC(C)C)C(=O)N[C@H](C(=O)N[C@@H](CCCCN)C(=O)NCC(=O)N[C@@H](CCCNC(=N)N)C(=O)NCC(=O)NCC(=O)N[C@@H](CCCCN)C(=O)O)C(C)C [BT1-N-GLP-1] | 69 ± 4.4 | 58.1 ± 4.9 | 53.2 | 23.1 ± 0.9 | 23.5 ± 0.2 | 100.0 ± 0.0 | 90.8 ± 7.1 | 78.8 ± 8 | 77.8 ± 4.3 | 71.7 ± 4.9 | 90.9 ± 3.6 | 96.4 ± 4.9 | 91.4 ± 3.2 | 93.2 ± 7 | 88.8 ± 4 | 90 ± 4.4 | 91 ± 6.6 | 88.9 ± 3 | 100.0 ± 0.0 | 88.9 ± 0.8 | remaining at 2 h, 25 μM (DPP-IV): 87 ± 2.7%; remaining at 4 h, 25 μM (DPP-IV): 85.8 ± 1.8%; remaining at 8 h, 25 μM (DPP-IV): 87.3 ± 2%; remaining at 12 h, 25 μM (DPP-IV): 84.8 ± 1.6%
